These are literature values, as cited in patent US20200197364A1, “DIHYDROMYRICETIN NANOPARTICLE FORMULATIONS” (priority 2017, published 2020).

For series [1] the following is noted: data collected by EPA.
The conditions of series [2]: through intestinal mucosa.
The conditions of series [3]: in vivo.

For `O=C1c2c(O)cc(O)cc2O[C@H](c2cc(O)c(O)c(O)c2)[C@H]1O` [DHM, Dihydromyricetin], the “Log P” value in series [1] is given as “approximately 1.31”. In addition, in series [2], the Permeability entry is “low”. Also, in series [3], the Oral bioavailability result is on record as “less than 5%”.
